Test results: patent US20240139149A1, “THERAPEUTIC USES OF UROLITHIN DERIVATIVES” (Vandria SA, priority 2022, published 2024)

Key:
[1] = test system: rat model of heart failure; assay: Rat model of heart failure after myocardial infarction (LAD ligation), echocardiography; type: in vivo
From the text: Generation of a rat model of cardiac impairment following myocardial infarction Fifty (50) Wistar male rats from Janvier Labs (France), 6-week-old (200-224 g on the day of arrival), were included in this study. Acclimatization of animals lasted at least 5 days. During the study, animals had free access to food and drinking water ad libitum.
Myocardial infarction (MI) was induced by chronic left anterior descending coronary artery (LAD) ligation performed at DO. Rats were anesthetized with an intraperitoneal (IP) injection of Medetomidine (0.5 mg/kg) and Ketamine (50 mg/kg), intubated and ventilated at 10 mL/kg tidal volume and 70-80 cycles/min. Body temperature was maintained between 36.5° C. and 37.5° C. via a thermoregulated heating pad connected to a rectal probe. A left lateral thoracotomy was carefully performed so as to expose the heart. Then, a suture was placed around the LAD (4/0 Silk, Ethicon), around 2 mm below the left atrium and close to the interventricular junction, in order to obtain infarct size (IS) near 40% of the total left ventricular (LV) area. Chest was closed, air was expelled from the rib cage to avoid pneumothorax and quick reanimation was performed using atipamezole hydrochloride (IM, 0.5 mg/mL, Zoetis). A peri-operative care of the animals was performed during the surgery: • Pre-operative care by one carprofen injection (SC, 5 mg/kg, Pfizer) and one lidocaine injection on the site of incision (SC, 4 mg/kg, Vetoquinol). • Post-operative care: 3 injections of buprenorphine (SC, 0.01 mg/kg, Axience) administered after awakening and during the first 24 hours after the surgery.
Rats underwent transthoracic echocardiographic examination in order to assess cardiac morphology and function in a noninvasively way. […]
Left ventricle (LV) function was assessed using ejection fraction (EF), calculated as follow: […]
Statistical analysis was performed with the Graphpad 6 software. […] First, differences were assessed between Sham/Vehicle and MI/Vehicle using an unpaired ttest followed by the appropriate post-hoc test. […]

[2] = test system: human T lymphocytes; assay: Proportion of human T memory stem cells (Tscm); type: cell-based
From the text: Human peripheral blood mononuclear cells were purified with a Ficoll-Paque (GE healthcare) gradient. T cells were enriched with EasySep Human T Cell Isolation Kit (StemCell) and activated with dynabead Human T-Activator CD3/CD28 for T Cell Expansion and Activation Kit (11131D; ThermoFisher Scientific). Cells were activated with compound 66 at the indicated concentration or DMSO. Tscm cells are identified and counted based on the expression of five different markers: CD45RA^+CCR7^HiCD62L^+CD95^+CD8^+.
Human peripheral blood mononuclear cells were purified with a Ficoll-Paque (GE healthcare) gradient. T cells were enriched with EasySep Human T Cell Isolation Kit (StemCell) and activated with dynabead Human T-Activator CD3/CD28 for T Cell Expansion and Activation Kit (11131D; ThermoFisher Scientific). Cells were activated with the 77 at 400 nM or DMSO.
Staining was performed as described in Example 15.
(§1) Flow cytometry and analysis was performed as described in Example 14.

[3] = test system: mouse T lymphocytes; assay: Mitochondrial content (Mitotracker positive cells) in mouse T lymphocytes; type: cell-based; conditions: 2 μM, 72 h; for percentage of Mitotracker positive cells: DMSO 44%
Protocol: Splenic murine T cells were isolated from mice aged 6-20 weeks by negative selection with EasySep mouse T cell isolation kit (Stem cell) according to the manufacturer's instructions. T cell activation was initiated using CD3/CD28 activation beads (11456D; ThermoFisher Scientific) at a ratio of 25 μl dynabeads per 0.5×10^6 T-cells. Cells were activated with test compounds at 2 μM or DMSO in T cell activation Medium (RPMI (ThermoFisher Scientific) 10% FBS (South America origin), 10 mM Hepes (Sigma), 1× Non-Essential Amino Acid, 1 mM Sodium Pyruvate, 50 μM β-Mercaptoethanol, 100 U/ml penicillin, 100 μg/ml streptomycin and 2 mM Glutamax (ThermoFisher Scientific) for 72 h. For subsequent analysis, activating beads were magnetically removed prior staining.
For flow cytometric analysis of mitochondria 500 μl of Mitotracker Red (200 nM; ThermoFisher) was applied followed by surface staining.
Cell doublets and cells debris were excluded from the analysis by gating FSC-A vs FSC-H followed by SSC-A vs SSC-H dot plots and FSC-A vs SSC-A dot plots, respectively. eFluor 780 highly positive cells, i.e, dead cells, were gated out of the analysis. Data was acquired on Canto II (BD), Fortessa (BD) and Aurora (Cytek) cytometers and analyzed with FlowJo.

[4] = test system: mouse T lymphocytes; assay: Proportion of mouse T memory stem cells (Tscm); type: cell-based; conditions: 2 μM, 72 h
Protocol: T cells were isolated and stimulated as described in Example 14.
Tscm represent a subset of minimally differentiated T cells, which share a CD44^loCD62L^hi phenotype with naïve T cells, but are phenotypically distinct by expressing high levels of Sca1 (Gattinoni et al., 2009). Tscm are therefore identified as CD44^−CD62L^+Sca1^hi cells.
as §1

[5] = test system: APTK-OVA tumors; assay: Adoptive transfer of UA-conditioned OT-1 T cells into Rag1−/− mice; type: in vivo, mouse; conditions: seven days after transfer into Rag1−/− mice, T cells cultured 48 hours with UA
Protocol: For adoptive cell transfer, purified splenic T cell from OT1 mice were isolated and activated using αCD3/αCD28 stimulation beads for 48 h. After magnetic bead removal, 1×10^6 T of activated T cell were intravenously injected into Rag1−/− recipients. To study survival of transferred T cells, stimulated OT-1 T cells were injected into mice without tumors. Subsequently, after 7 days, spleens were isolated and splenocytes were stained for the CD8+ subsets as described below. To understand antitumor immunity conferred by transferred OT-1 lymphocytes, cells were injected into mice carrying APTK-OVA tumors 10 days after subcutaneous organoid transplantation. Tumor growth was assessed as described above. Mice were kept under regular chow food for the T cell adoptive transfer experiment and sacrificed collectively when maximum tumor diameter extended 1.5 cm.
Tumors were minced and digested with Tumor & Tissue Dissociation Reagent (BD Horizon) for 30 min. The remaining organ pieces were filtered through a 70 µm cell strainer. Cells were then washed with PBS 1% BSA and 2 mM EDTA. Immune cells were enriched on a 30%/40%/75% Percoll gradient after a 1700 rpm 17 min centrifugation. Then, tumor immune filtrates or activated T cells were stained with Fixable Viability Dye-eF780 (65-0865-14; eBioscience), αCD45-FITC (30-F11; 11-0451-85; eBioscience), αCD11b-BV650 (M1/70; 56340; BD) α-CD11c-BV785 (HL3; 563735; BD), aLy6G-BV605 (53-6.7; 563005; BD), aLy6C-AF700 (HK1.4; 128024; Biolegend), aF4/80-PE (BM8; 12-4801-82, eBioscience), aPD-L1-PECy7 (MIH5; 25-5982-80, eBioscience); or with Fixable Viability Dye-eF780 (ebioscience), αCD45-BV786 (30-F11; 564225; BD), αCD4-BUV496 (GK1.5; 564667; BD), αCD8-BV605 (100744; Biolegend), aPD1-APC (J43; 17-9985-82; eBioscience), aTIM-3-PECy7 (RMT3-23; 119715; Biolegend), aCTLA4-PE (UC10-4B9; 106305; Biolegend) and aLag3-BV421 (C9B7W; 125221, Biolegend); or with Fixable Viability Dye-eF780 (eBioscience), αCD4-FITC (H129.19; 553650; BD), αCD8-APC (53-6.7; 17-0081-83; eBioscience), αCD44-AF400 (IM7; 103026; Biolegend), αCD62L-BV785 (MEL-14; 104440; Biolegend), αSca-1-PerCP-Cy5.5 (D7; 45-5981-82; eBioscience), αCD95-PE (Jo2; 554258; BD); or with Fixable Viability Dye-eF780 (eBioscience), αCD8-BV650 (53-6.7; 563234; BD), αCD4-BUV496 (GK1.5; 564667; BD), αCD127-APC (A7R34; 17-1271-82; eBioscience), αCD95-FITC (SA367H8;152605; Biolegend), αCD44-AF400 (IM7; 103026; Biolegend), αCD62L-BV785 (MEL-14; 104440; Biolegend), αSca-1-PerCP-Cy5.5 (D7; 45-5981-82; eBioscience) followed by intracellular staining of aTCF1-PE (S33-966; 564217; BD), or PGC-1α (sc-518025; D-5; santa cruz), or aCyclinD1 (MA5-28534, DCS-6; Invitrogen) with transcription factor buffer set kit (BD Biosciences). To study cytokine expression, tumor immune infiltrates were stimulated ex vivo with 20 ng/mL PMA and […] Ionomycin (Sigma) for 3 h in T cell activation medium with Brefeldin A (Biolegend). For T cell in vitro activation experiments over several days, Brefeldin A was added to the medium for the last 3 hours. Cells were then stained with Fixable Viability Dye-eF780 (eBioscience), αCD8-PeCy7 (53.6-7; 100722; Biolegend), αCD4-AF700 (GK1.5; 100429; Biolegend), and intracellular staining for cytokine assessment was performed with BD Cytofix/Cytoperm (BD) with 20 min fixation and overnight incubation with αGranzyme B-FITC (GB11; 515403; Biolegend), αIFNγ-PerCPCy5.5 (XMG1.2; 45-7311-82; eBioscience) and αTNFa-BV711 (MP6-XT22; 563944; BD). For flow cytometric analysis of mitochondria and lysosomes 500 μl of Mitotracker Red (200 nM; ThermoFisher) or Lysotracker Red DND-99 (75 nM; ThermoFisher) were applied followed by surface staining. To study changes in mitochondrial membrane potential, Mitoprobe TMRM kit (ThermoFisher) was used according to the manufacturer's instructions. Cell proliferation was assessed by CellTrace Violet (Invitrogen, C34557) at a concentration of […] according to manufacturer's instructions. […]

[6] = MI rats, 0.5 mg/kg oral gavage, Month 2, M-mode, vs MI/Vehicle

SMILES | LV systolic dysfunction induced by MI ([1]; 0.5 mg/kg, 2 months after LAD ligation) | ejection fraction (EF) [1, 6] | fractional shortening (FS) [1, 6] | Tscm proportion of CD3+ lymphocytes ([2]; indicated concentration vs DMSO) | increase in the percentage of Mitotracker positive cells vs DMSO [3] | percentage of Mitotracker positive cells [3] | increase in the percentage of Tscm in CD8+ cells vs DMSO [4] | percentage of Tscm in CD8+ cells ([4]; DMSO 16.7%) | number of engrafted CD8+ T cells [5] | increase in Tscm proportion of CD8+ lymphocytes ([2]; 400 nM, 72 h, vs DMSO)
O=C1OCc2cc(O)ccc2-c2ccc(O)cc21 [compound 66, 3,9-dihydroxydibenzo[c,e]oxepin-5(7H)-one] | able to prevent | significant increases | significant increases | significant increase | 27.5% | 56.1% | 69% | 28.2% |  | 
O=c1oc2cc(O)ccc2c2ccc(O)cc12 [Urolithin A] |  |  |  |  |  |  |  |  | significantly higher | 
CN1C(=O)Cc2cc(O)ccc2-c2ccc(O)cc21 [compound 77, 3,9-dihydroxy-5-methyl-5,7-dihydro-6H-dibenzo[b,d]azepin-6-one] |  |  |  |  | 43.4% | 63.1% |  |  |  | ~3 fold
